Target: T1, human TSHR (Homo sapiens, UniProt P16473)
T1 construct: expressed in transfected cells
Test: Antagonist activity using TSH-induced cAMP production in human TSHR-stably expressing CHO cells
Assay type: cell-based
Conditions: human TSH 50 ng/mL
Method: Measurement of Antagonist Activity Using TSH-Induced cAMP Production in Human TSHR-Stably Expressing CHO Cells as an Indicator
The human TSHR gene sequence (reference number NM_000369.2) was inserted into the multicloning site of pcDNA3.1(+). The constructed plasmid vector was introduced into CHO cells using the lipofection method to establish human TSHR-stably expressing CHO cells. The obtained cells were seeded at 5×10^4 cells/well in a 96-well poly-D-lysine-coated plate, and cultured in an F12 culture medium containing 10% FBS, 400 μg/mL of G418, 50 U/mL of penicillin and 50 μg/mL of streptomycin under conditions of 37° C. and 5% CO2 for 1 day. After the culture medium was removed, the cells were washed twice with 100 μL of an assay buffer solution (Hanks' Balanced Salt Solution containing 20 mM HEPES and 1 mM IBMX) per well. 30 μL of a test compound-containing assay buffer solution was added to the well and incubated at room temperature for 15 minutes. Then, 30 μL of an assay buffer solution containing human TSH (final concentration 50 ng/mL, R&D Systems, Inc.) was added, and incubated at 37° C. for 1 hour. The supernatant was removed, a Lysis and Detection Buffer 2 (Cisbio) was added, and the mixture was incubated at room temperature for 1 hour to prepare a cell lysate. According to the instruction manual of a cAMP Gs HiRange kit (Cisbio), the cell lysate, d2-labeled cAMP and anti-cAMP Europium Cryptate labeled antibodies (Cisbio) were reacted in a 384-well white microplate. Then, a fluorescence intensity ratio (measurement wavelength 665 nm/620 nm) was measured using a multi-plate reader (PHERAstar FSX, BMG LABTECH, Japan). The fluorescence intensity ratio of each sample was converted to a cAMP content using a standard curve. The cAMP content was converted as a percentage of the control value to calculate the cAMP production rate. The CAMP production rate was plotted against the test compound concentration using Prism (Graph Pad Software Inc.) to calculate the IC50 value. The IC50 of each test compound is shown in the above tables. In the tables, IC50<0.5 μM: A, 0.5 μM≤IC50<3.0 μM: B, 3.0 μM≤IC50<30 μM: C are shown.

T1 sequence (P16473 21-764): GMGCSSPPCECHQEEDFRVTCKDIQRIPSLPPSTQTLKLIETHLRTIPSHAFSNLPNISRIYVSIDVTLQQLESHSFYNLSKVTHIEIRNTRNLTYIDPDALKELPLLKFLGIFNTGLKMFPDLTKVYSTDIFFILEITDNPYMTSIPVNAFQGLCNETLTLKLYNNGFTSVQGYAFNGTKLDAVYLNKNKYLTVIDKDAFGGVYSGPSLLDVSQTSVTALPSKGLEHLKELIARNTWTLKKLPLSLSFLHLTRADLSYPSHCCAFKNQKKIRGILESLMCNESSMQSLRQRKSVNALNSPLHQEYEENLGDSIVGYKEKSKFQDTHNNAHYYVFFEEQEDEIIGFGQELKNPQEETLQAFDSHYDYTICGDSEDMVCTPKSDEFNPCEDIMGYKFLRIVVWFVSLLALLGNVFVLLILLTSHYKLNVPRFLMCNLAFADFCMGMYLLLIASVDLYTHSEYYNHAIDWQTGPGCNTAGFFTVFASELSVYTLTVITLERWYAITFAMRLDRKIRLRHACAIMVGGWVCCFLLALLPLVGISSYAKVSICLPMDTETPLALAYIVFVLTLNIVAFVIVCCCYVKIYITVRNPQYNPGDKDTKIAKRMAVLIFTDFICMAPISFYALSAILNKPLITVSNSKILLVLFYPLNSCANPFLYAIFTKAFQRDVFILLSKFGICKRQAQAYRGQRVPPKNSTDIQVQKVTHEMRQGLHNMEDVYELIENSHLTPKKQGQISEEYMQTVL

| SMILES | IC50 [µM] |
| --- | --- |
| CN1C(=O)C(CC(N)=O)Cc2cccc(Oc3ccccc3)c21 (centres unmarked) [Example 1, 2-(1-methyl-2-oxo-8-phenoxy-1,2,3,4-tetrahydroquinolin-3-yl)acetamide] | 3 to 30 |
| CN1C(=O)C(NC(N)=O)Cc2cccc(Oc3ccccc3)c21 (centres unmarked) [Example 2, (1-methyl-2-oxo-8-phenoxy-1,2,3,4-tetrahydroquinolin-3-yl)urea] | 0.5 to 3 |
| CN1C(=O)C(NC(N)=O)Cc2cccc(Oc3ccccc3F)c21 (centres unmarked) [Example 3, (8-(2-fluorophenoxy)-1-methyl-2-oxo-1,2,3,4-tetrahydroquinolin-3-yl)urea] | 0.5 to 3 |
| CN1C(=O)C(NC(N)=O)Cc2cccc(Oc3cccc(F)c3)c21 (centres unmarked) [Example 4, (8-(3-fluorophenoxy)-1-methyl-2-oxo-1,2,3,4-tetrahydroquinolin-3-yl)urea] | 3 to 30 |
| CN1C(=O)C(NC(N)=O)Cc2cccc(Oc3cccc(C(F)(F)F)c3)c21 (centres unmarked) [Example 5, (1-methyl-2-oxo-8-(3-(trifluoromethyl)phenoxy)-1,2,3,4-tetrahydroquinolin-3-yl)urea] | 0.5 to 3 |
| CN1C(=O)C(NC(N)=O)Cc2cccc(Oc3cccc(Cl)c3)c21 (centres unmarked) [Example 6, (8-(3-chlorophenoxy)-1-methyl-2-oxo-1,2,3,4-tetrahydroquinolin-3-yl)urea] | 0.5 to 3 |
| CN1C(=O)C(NC(N)=O)Cc2ccc(F)c(Oc3ccccc3)c21 (centres unmarked) [Example 7] | 0.5 to 3 |
| CN1C(=O)C(NC(N)=O)Cc2ccc(Cl)c(Oc3ccccc3)c21 (centres unmarked) [Example 8] | 0.5 to 3 |
| CN1C(=O)C(NC(N)=O)Cc2cccc(Oc3ncccc3C(F)(F)F)c21 (centres unmarked) [Example 9, (1-methyl-2-oxo-8-((3-(trifluoromethyl)pyridine-2-yl)oxy)-1,2,3,4-tetrahydroquinolin-3-yl)urea] | 3 to 30 |
| COc1ccccc1Oc1cccc2c1N(C)C(=O)[C@H](NC(N)=O)C2 [Example 11, ((3R)-8-(2-methoxyphenoxy)-1-methyl-2-oxo-1,2,3,4-tetrahydroquinolin-3-yl)urea] | 3 to 30 |
| CN1C(=O)[C@H](NC(N)=O)Cc2cccc(Oc3cccc(C#N)c3)c21 [Example 12, ((3R)-8-(3-cyanophenoxy)-1-methyl-2-oxo-1,2,3,4-tetrahydroquinolin-3-yl)urea] | 3 to 30 |
| COc1cccc(Oc2cccc3c2N(C)C(=O)[C@H](NC(N)=O)C3)c1 [Example 13] | 0.5 to 3 |
| CCc1ccccc1Oc1cccc2c1N(C)C(=O)[C@H](NC(N)=O)C2 [Example 14] | 0.5 to 3 |
| CCc1cccc(Oc2cccc3c2N(C)C(=O)[C@H](NC(N)=O)C3)c1 [Example 15] | 0.5 to 3 |
| CC(C)c1ccccc1Oc1cccc2c1N(C)C(=O)[C@H](NC(N)=O)C2 [Example 17, ((3R)-1-methyl-2-oxo-8-(2-(propan-2-yl)phenoxy)-1,2,3,4-tetrahydroquinolin-3-yl)urea] | 0.5 to 3 |
| CN1C(=O)[C@H](NC(N)=O)Cc2cccc(Oc3cccc(OC(F)F)c3)c21 [Example 24, ((3R)-8-(3-(difluoromethoxy)phenoxy)-1-methyl-2-oxo-1,2,3,4-tetrahydroquinolin-3-yl)urea] | 0.5 to 3 |
| COc1cccc(Oc2c(Cl)ccc3c2N(C)C(=O)[C@H](NC(N)=O)C3)c1 [Example 25] | 0.5 to 3 |
| CN1C(=O)[C@H](NC(N)=O)Cc2ccc(OCc3ccccc3)c(Oc3ccccc3Cl)c21 [Example 32] | 3 to 30 |
| CN1C(=O)[C@H](NC(N)=O)Cc2ccc(O)c(Oc3ccccc3Cl)c21 [Example 33, ((3R)-8-(2-chlorophenoxy)-7-hydroxy-1-methyl-2-oxo-1,2,3,4-tetrahydroquinolin-3-yl)urea] | 0.5 to 3 |
| CN1C(=O)[C@H](NC(N)=O)Cc2ccc(F)c(Oc3ccccc3C(F)(F)F)c21 [Example 36] | 0.5 to 3 |
| CN1C(=O)[C@H](NC(N)=O)Cc2ccc(Cl)c(Oc3cc(F)ccc3Cl)c21 [Example 37, ((3R)-7-chloro-8-(2-chloro-5-fluorophenoxy)-1-methyl-2-oxo-1,2,3,4-tetrahydroquinolin-3-yl)urea] | < 0.5 |
| Cc1ccc2c(c1Oc1ccccc1C(F)F)N(C)C(=O)[C@H](NC(N)=O)C2 [Example 38, ((3R)-8-(2-(difluoromethyl)phenoxy)-1,7-dimethyl-2-oxo-1,2,3,4-tetrahydroquinolin-3-yl)urea] | < 0.5 |
| Cc1ccc2c(c1Oc1cc(F)ccc1Cl)N(C)C(=O)[C@H](NC(N)=O)C2 [Example 39, ((3R)-8-(2-chloro-5-fluorophenoxy)-1,7-dimethyl-2-oxo-1,2,3,4-tetrahydroquinolin-3-yl)urea] | < 0.5 |
| CN1C(=O)[C@H](NC(N)=O)Cc2cccc(Oc3ccccc3Cl)c21 [Example 40, ((3R)-8-(2-chlorophenoxy)-1-methyl-2-oxo-1,2,3,4-tetrahydroquinolin-3-yl)urea] | < 0.5 |
| CN1C(=O)[C@H](NC(N)=O)Cc2cccc(OC3CCCCC3)c21 [Example 41] | 0.5 to 3 |

Now from value to compound:

| IC50 [µM] | SMILES |
| --- | --- |
| < 0.5 | CN1C(=O)[C@H](NC(N)=O)Cc2cccc(Oc3ccccc3C(F)(F)F)c21 [Example 10, ((3R)-1-methyl-2-oxo-8-(2-(trifluoromethyl)phenoxy)-1,2,3,4-tetrahydroquinolin-3-yl)urea] |
| < 0.5 | CN1C(=O)[C@H](NC(N)=O)Cc2cccc(Oc3cc(F)ccc3Cl)c21 [Example 16, ((3R)-8-(2-chloro-5-fluorophenoxy)-1-methyl-2-oxo-1,2,3,4-tetrahydroquinolin-3-yl)urea] |
| < 0.5 | CN1C(=O)[C@H](NC(N)=O)Cc2cccc(Oc3ccccc3C(F)F)c21 [Example 18, ((3R)-8-(2-(difluoromethyl)phenoxy)-1-methyl-2-oxo-1,2,3,4-tetrahydroquinolin-3-yl)urea] |
| < 0.5 | CN1C(=O)[C@H](NC(N)=O)Cc2ccc(F)c(Oc3ccccc3Cl)c21 [Example 19, ((3R)-8-(2-chlorophenoxy)-7-fluoro-1-methyl-2-oxo-1,2,3,4-tetrahydroquinolin-3-yl)urea] |
| < 0.5 | CN1C(=O)[C@H](NC(N)=O)Cc2cccc(Oc3ccc(F)cc3Cl)c21 [Example 20, ((3R)-8-(2-chloro-4-fluorophenoxy)-1-methyl-2-oxo-1,2,3,4-tetrahydroquinolin-3-yl)urea] |
| < 0.5 | CN1C(=O)[C@H](NC(N)=O)Cc2cccc(Oc3cc(F)ccc3C(F)(F)F)c21 [Example 21, ((3R)-8-(5-fluoro-2-(trifluoromethyl)phenoxy)-1-methyl-2-oxo-1,2,3,4-tetrahydroquinolin-3-yl)urea] |
| < 0.5 | CN1C(=O)[C@H](NC(N)=O)Cc2ccc(Cl)c(Oc3ccccc3Cl)c21 [Example 22, ((3R)-7-chloro-8-(2-chlorophenoxy)-1-methyl-2-oxo-1,2,3,4-tetrahydroquinolin-3-yl)urea] |
| < 0.5 | CN1C(=O)[C@H](NC(N)=O)Cc2ccc(Cl)c(Oc3ccccc3F)c21 [Example 23, ((3R)-7-chloro-8-(2-fluorophenoxy)-1-methyl-2-oxo-1,2,3,4-tetrahydroquinolin-3-yl)urea] |
| < 0.5 | CN1C(=O)[C@H](NC(N)=O)Cc2ccc(Cl)c(Oc3cccc(F)c3)c21 [Example 26, ((3R)-7-chloro-8-(3-fluorophenoxy)-1-methyl-2-oxo-1,2,3,4-tetrahydroquinolin-3-yl)urea] |
| < 0.5 | CN1C(=O)[C@H](NC(N)=O)Cc2ccc(Cl)c(Oc3ccccc3C(F)F)c21 [Example 27, ((3R)-7-chloro-8-(2-(difluoromethyl)phenoxy)-1-methyl-2-oxo-1,2,3,4-tetrahydroquinolin-3-yl)urea] |
| < 0.5 | CN1C(=O)[C@H](NC(N)=O)Cc2cccc(Oc3cc(F)ccc3C(F)F)c21 [Example 28] |
| < 0.5 | CN1C(=O)[C@H](NC(N)=O)Cc2cccc(Oc3ccc(F)cc3C(F)F)c21 [Example 29] |
| < 0.5 | COc1ccc(Cl)c(Oc2cccc3c2N(C)C(=O)[C@H](NC(N)=O)C3)c1 [Example 30, ((3R)-8-(2-chloro-5-methoxyphenoxy)-1-methyl-2-oxo-1,2,3,4-tetrahydroquinolin-3-yl)urea] |
| < 0.5 | Cc1ccc2c(c1Oc1ccccc1Cl)N(C)C(=O)[C@H](NC(N)=O)C2 [Example 31, ((3R)-8-(2-chlorophenoxy)-1,7-dimethyl-2-oxo-1,2,3,4-tetrahydroquinolin-3-yl)urea] |
| < 0.5 | CCN1C(=O)[C@H](NC(N)=O)Cc2cccc(Oc3ccccc3Cl)c21 [Example 34, ((3R)-8-(2-chlorophenoxy)-1-ethyl-2-oxo-1,2,3,4-tetrahydroquinolin-3-yl)urea] |
| < 0.5 | CN1C(=O)[C@H](NC(N)=O)Cc2cccc(Oc3cc(F)c(F)cc3Cl)c21 [Example 35, ((3R)-8-(2-chloro-4,5-difluorophenoxy)-1-methyl-2-oxo-1,2,3,4-tetrahydroquinolin-3-yl)urea] |
